Measured values reported in patent publication US9974776B2, “Estrogen receptor beta agonists for use in treating mesothelioma” (Karo Pharma AB, priority 2013, dated 2018).
Entries after “also recorded” stand apart in the source; their conditions may differ.

What was measured:
REN cells = assay: Proliferation assay (Trypan blue viable cell count; wash-off and add-on experiments) in REN cells; type: cell-based, human
Procedure: (§1) Cells were seeded at a density of 10×10^4 cells/well in 6-well plates in RPMI medium supplemented with 10% FBS, 100 μg/ml streptomycin and 10 μg/ml penicillin and incubated over-night at 37° C. in a humidified environment containing 5% CO2 to allow adherence. Following treatment cells were trypsinized and stained with Trypan blue. The number of cells considered viable (unstained cells) was counted in a Bürker haemocytometer within 5 minutes after staining.
Control cultures were maintained in normal growth medium without added drug. The number of viable cells was determined as described for the proliferation assay.
In the add-on experiments the second drug was added directly to the cell culture medium without wash-off of the first drug. […] Control cultures were maintained in normal growth medium without added drug. The number of viable cells was determined as described for the proliferation assay.

H2596 cells = assay: Proliferation assay in H2596 cells; type: cell-based; details: 10 nM single agent, 24 and 48 hours; very low ERβ
Procedure: as §1

MSTO-211H cells = assay: Proliferation assay in ERβ negative MSTO-211H cells; type: cell-based; details: 10 nM single agent, 24 and 48 hours
Procedure: as §1

MSTO-211H/ERβ cells = assay: Proliferation assay in MSTO-211H cells transfected with ERβ expression vector; type: cell-based; details: 10 nM, 24 and 48 hours; transient transfection with ERβ expression vector
From the text: The epithelioid MPM derived REN cell line was isolated, characterized and provided by Dr. Albelda S. M. (University of Pennsylvania, Philadelphia; PA, USA). The biphasic MSTO-211H and the mesothelial MET5A cell lines were obtained from the Istituto Scientifico Tumori (IST) Cell-bank, Genoa, Italy; the MMB and MMP cell lines have been derived from pleural effusions of patients with MPM and stabilized in culture (Cacciotti P, et al., Proc Natl Acad Sci USA 2001; 98:12032-7; Pinton G., et al, Cancer Res 2009; 69:4598-604); the H2596 cell line was produced by Dr. H. I. Pass from surgical specimens derived from patients with resected MPM (Pass H. I., et al., Ann Thorac Surg 1995; 59(4):835-44). Cells were grown in RPMI medium supplemented with 10% FBS, […] streptomycin and 10 μg/ml penicillin at 37° C. in a humidified environment containing 5% CO2. Mycoplasma infection was excluded by the use of Mycoplasma Plus™ PCR Primer Set kit from Stratagene (La Jolla, Calif., USA). […]
as §1, with “Following treatment cells were trypsinized and stained with Trypan blue.” left out

PARP1 cleavage = assay: Western blot of PARP1 cleavage in MET5A cells; type: cell-based; details: 10 nM 2 hours pre-treatment, cisplatin 25, 50, 100 μM
Procedure: (§2) Cells were extracted with 1% NP-40 lysis buffer (1% NP-40, 150 mM NaCl, 50 mM Tris-HCl pH 8.5 mM EDTA, 10 mM NaF, 10 mM Na4P2O7, 0.4 mM Na3VO4) with freshly added protease inhibitors (10 μg/ml leupeptin, 4 μg/ml pepstatin and 0.1 Unit/ml aprotinin). For protein extraction from tissues, ˜100 mg of each sample were homogenized, using a Potter-Elvehjem homogenizer device, in 1% NP-40 lysis buffer. Lysates were centrifuged at 13.000×g for 10 minutes at 4° C. and the supernatants were collected and assayed for protein concentration with the Bio-Rad protein assay method.
(§3) Proteins were separated by SDS-PAGE under reducing conditions. Following SDS-PAGE, proteins were transferred to nitrocellulose, reacted with specific antibodies and then detected with peroxidase-conjugate secondary antibodies and chemioluminescent ECL reagent. Densitometric analysis was performed using the GS 250 Molecular Image (Bio-Rad).
(§4) Levels of PARP1, cleaved PARP1, AKT and phosphorylated AKT in the MET5A cell cultures at 24 hours were also determined by Western blot analysis and relative densitometry.

AKT phosphorylation [1] = assay: Western blot of AKT phosphorylation in MET5A cells; type: cell-based; details: 10 nM 2 hours pre-treatment
Procedure: as §2, §3, §4

MMP cells = assay: Proliferation assay (wash-off experiment) in MMP cells; type: cell-based, human; details: 10 nM 2 hours, 50 μM cisplatin 24 hours
Procedure: as §1
Cell cultures were pretreated with Compound (I) for 1-16 hours (depending on experiment) followed by wash-off and then replenished with normal growth medium±cisplatin, pemetrexed or cisplatin/pemetrexed. Total incubation time was 24-72 hours (depending on experiment). Control cultures were maintained in normal growth medium without added drug. The number of viable cells was determined as described for the proliferation assay.
50 μM cisplatin was added to MMP cell cultures pre-treated for 2 hours with 10 nM Compound (I) (wash-off experiment). The number of viable cells at 24 hours was determined as described for the proliferation assay above. Control cultures were maintained in normal growth medium; growth medium plus Compound (I) (10 nM); and growth medium plus cisplatin (50 μM).

AKT phosphorylation [2] = assay: Western blot of AKT phosphorylation in MMP cells; type: cell-based, human; details: 10 nM 2 hours pre-treatment, ± 50 μM cisplatin
Procedure: as §2, §3
Levels of PARP1, cleaved PARP1, AKT and phosphorylated AKT in the MMP cell cultures at 24 hours were also determined by Western blot analysis.

**Q.** With `Cc1noc(C)c1-c1c(/C(N)=N/O)c2ccccc2n1-c1ccc(O)cc1` [Compound (I)] as the compound, how does the “anti-proliferative effect, pre-treatment then 20 μM cisplatin” value (REN cells; 10 nM 2 hours, wash-off, 20 μM cisplatin for additional 24 hours) read?
**A.** The value was “as efficacious as 100 μM cisplatin alone”.

**Q.** And the “inhibitory effect on cell growth and viability, pre-treatment then cisplatin/pemetrexed” value (REN cells; 10 nM 2 hours, wash-off, cisplatin 100 μM and pemetrexed 22 μM for additional 24 hours)?
**A.** The value was “strong synergistic inhibitory effect on cell growth and viability”.

**Q.** What about the “inhibitory effect on cell growth and viability, pre-treatment then cisplatin” value (REN cells; 10 nM 2 hours, wash-off, cisplatin 100 μM for additional 24 hours) of the same compound?
**A.** Its value is “strong synergistic inhibitory effect on cell growth and viability”.

**Q.** What about the “anti-proliferative effect, pre-treatment then cisplatin 20-100 μM” value (REN cells; 10 nM 2 hours, wash-off, cisplatin for additional 24 hours) of the same compound?
**A.** Its value is “most efficacious anti-proliferative effect was observed when Compound (I) pre-treatment was combined with the highest concentration of cisplatin (100 μM)”.

**Q.** And the “enhancement of anti-proliferative effect of pemetrexed” value (REN cells; 10 nM 2 hours, wash-off, pemetrexed 5-22 μM for additional 24 hours)?
**A.** Its value is “No enhanced anti-proliferative effect”.

**Q.** What about the “synergy when cisplatin is given first (reverse order)” value (REN cells; 10 nM Compound (I) added 2, 4, 8, 12 hours after start of 100 μM cisplatin, 24 hours) of the same compound?
**A.** The value was “did not result in synergistic inhibition of cell growth and viability”.

**Q.** And the “growth inhibition versus single agents, cisplatin given first” value (REN cells; 10 nM Compound (I) added after 100 μM cisplatin, 24 hours)?
**A.** The value was “greater growth inhibition than cells treated with only one of the agents”.

**Q.** And the “inhibition of proliferation, REN cells” value (REN cells; 10 nM single agent, 24 and 48 hours)?
**A.** The value was “significantly (p≤0.05) inhibited proliferation”.

**Q.** And the “growth inhibitory activity after brief exposure and wash-off” value (REN cells; 10 nM, 2 hours exposure, total incubation 24 hours)?
**A.** The value was “significantly (p≤0.05) increased growth inhibitory activity relative to 1 hour exposure and exposures longer than 8 hours”.

**Q.** And the “enhancement of anti-proliferative effect of cisplatin, add-on experiment” value (REN cells; 100 μM cisplatin added 2, 4, 8, 12 hours after start of 10 nM Compound (I), 24 hours)?
**A.** The value was “greatest inhibitory effect obtained when adding cisplatin after 2 hours of Compound (I) pre-treatment”.

**Q.** What about the “concentration dependence of anti-proliferative effect after 2 hours pre-treatment” value (REN cells; 0.4, 2 and 10 nM, wash-off, 24-72 hours) of the same compound?
**A.** The value was “largest anti-proliferative effect was observed with the highest Compound (I) concentration used”.

**Q.** What about the “duration of inhibitory effect on REN cell proliferation” value (REN cells; 2-hours pre-treatment with 0.4, 2 or 10 nM, wash-off, irrespective of concentration) of the same compound?
**A.** Its value is “at least 24 hours”.

**Q.** And the “growth inhibition of REN cells” value (REN cells; 24 hours treatment, range 1-100 nM, versus untreated cells)?
**A.** Its value is “significantly (p≤0.05) reduced cell growth and viability in a dose-dependent manner”.

**Q.** And the “dose of highest efficacy for growth inhibition” value (REN cells; REN cells, 24 hours, range 1-100 nM tested)?
**A.** The value was 10 nM.

**Q.** What about the “isobologram analysis of combination with cisplatin” value (REN cells; analysis of Example 4(b) results (FIG. 4F)) of the same compound?
**A.** The value was “synergistic effect”.

**Q.** What about the “inhibition of proliferation, H2596 cells” value (H2596 cells) of the same compound?
**A.** Its value is “weak response”.

**Q.** And the “inhibition of proliferation, MSTO-211H cells” value (MSTO-211H cells)?
**A.** The value was “no response”.

**Q.** What about the “inhibition of proliferation, MSTO-211H/ERβ cells” value (MSTO-211H/ERβ cells) of the same compound?
**A.** Its value is “sensitized these cells to Compound (I)”.

**Q.** And the “percentage of cleaved PARP1 in MET5A cells” value (PARP1 cleavage)?
**A.** Its value is “reduced the percentage of cleaved PARP1 in cells exposed to all concentrations of cisplatin”.

**Q.** What about the “basal pAKT levels in MET5A control cells” value (AKT phosphorylation [1]; no cisplatin) of the same compound?
**A.** The value was “no effect on basal pAKT levels”.

**Q.** What about the “effect on cisplatin-mediated inhibition of pAKT in MET5A cells” value (AKT phosphorylation [1]; then cisplatin) of the same compound?
**A.** The value was “antagonized the cisplatin-mediated inhibition of pAKT”.

**Q.** And the “anti-proliferative effect in MMP cells, pre-treatment then cisplatin” value (MMP cells)?
**A.** Its value is “enhanced anti-proliferative effect of cisplatin was observed; also recorded: synergistic growth inhibition compared to Compound (I) or cisplatin alone”.

**Q.** And the “AKT phosphorylation in MMP cells” value (AKT phosphorylation [2])?
**A.** Its value is “significantly reduced AKT phosphorylation both in the absence and in the presence of cisplatin”.
